Measurements as given in ChEMBL document CHEMBL1136743, “Design, synthesis, and biological evaluation of C9- and C2-substituted pyrazolo[4,3-e]-1,2,4-triazolo[1,5-c]pyrimidines as new A2A and A3 adenosine receptors antagonists” (J Med Chem, 2003).
pIC50, pKi: −log10 of the molar value. Values belong to the compound of their own block, whether it stands above or below them.

Columns and labels:
[1] = target: T1, Adenosine receptor A3 (Homo sapiens, UniProt P0DMS8)
T1 sequence (P0DMS8 whole entry): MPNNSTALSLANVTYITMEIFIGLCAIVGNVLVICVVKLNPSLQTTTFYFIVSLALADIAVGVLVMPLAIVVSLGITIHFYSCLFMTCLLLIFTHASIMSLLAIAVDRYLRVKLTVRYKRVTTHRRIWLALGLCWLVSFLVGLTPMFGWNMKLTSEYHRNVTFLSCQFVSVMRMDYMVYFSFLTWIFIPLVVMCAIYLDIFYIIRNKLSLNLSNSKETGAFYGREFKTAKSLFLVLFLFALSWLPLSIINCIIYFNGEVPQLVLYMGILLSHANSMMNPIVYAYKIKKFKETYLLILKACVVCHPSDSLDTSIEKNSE

[2] = target: T1, Adenosine receptor A3; assay: biochemical
Description: (§1) Displacement of [3H]- MRE 308F20 binding from human Adenosine A3 receptor expressed in CHO cells

[3] = target: T2, Adenosine receptor A2b (Rattus norvegicus, UniProt P29276)
T2 sequence (P29276 whole entry): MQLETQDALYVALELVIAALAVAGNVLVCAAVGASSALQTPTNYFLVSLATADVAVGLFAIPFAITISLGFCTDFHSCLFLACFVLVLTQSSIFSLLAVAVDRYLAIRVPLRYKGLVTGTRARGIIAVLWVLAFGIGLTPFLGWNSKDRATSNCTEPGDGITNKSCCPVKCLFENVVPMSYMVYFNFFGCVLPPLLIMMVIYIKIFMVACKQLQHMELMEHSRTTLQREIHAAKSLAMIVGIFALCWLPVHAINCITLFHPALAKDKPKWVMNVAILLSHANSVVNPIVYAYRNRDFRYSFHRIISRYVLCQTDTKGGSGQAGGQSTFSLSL

[4] = target: T3, Adenosine receptor A1 (Homo sapiens, UniProt P30542); assay: biochemical
T3 sequence (P30542 whole entry): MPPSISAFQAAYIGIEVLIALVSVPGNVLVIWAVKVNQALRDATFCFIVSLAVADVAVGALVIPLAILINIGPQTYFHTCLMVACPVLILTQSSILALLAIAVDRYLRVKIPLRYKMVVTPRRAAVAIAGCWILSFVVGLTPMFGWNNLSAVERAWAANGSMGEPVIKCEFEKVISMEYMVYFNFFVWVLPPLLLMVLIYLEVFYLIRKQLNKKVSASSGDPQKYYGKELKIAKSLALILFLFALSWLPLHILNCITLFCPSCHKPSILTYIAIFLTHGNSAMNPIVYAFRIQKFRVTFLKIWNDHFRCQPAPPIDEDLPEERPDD
Description: Displacement of [3H]- DPCPX binding at human Adenosine A1 receptor expressed in CHO cells

[5] = target: T4, Adenosine receptor A2b (Homo sapiens, UniProt P29275); assay: biochemical
T4 sequence (P29275 whole entry): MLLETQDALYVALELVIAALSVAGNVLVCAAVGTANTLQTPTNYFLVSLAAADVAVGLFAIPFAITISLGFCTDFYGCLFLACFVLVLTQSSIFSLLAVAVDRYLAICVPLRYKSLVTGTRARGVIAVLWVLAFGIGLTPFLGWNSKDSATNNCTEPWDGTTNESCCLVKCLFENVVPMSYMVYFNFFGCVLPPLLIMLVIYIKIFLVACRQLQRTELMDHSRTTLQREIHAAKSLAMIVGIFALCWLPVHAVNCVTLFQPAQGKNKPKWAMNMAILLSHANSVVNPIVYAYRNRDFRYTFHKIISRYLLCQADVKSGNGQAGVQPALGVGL
Description: (§2) Displacement of [3H]- DPCPX from human adenosine A2B receptor expressed in HEK293 cells

[6] = target: T5, Adenosine receptor A2a (Homo sapiens, UniProt P29274); assay: biochemical
[7] = target: T5, Adenosine receptor A2a
[8] = target: T5, Adenosine receptor A2a; assay: biochemical; remark: listed apart in the source
[9] = target: T1, Adenosine receptor A3; conditions: cho
Description: as §1

[10] = target: T4, Adenosine receptor A2b; assay: biochemical; remark: listed apart in the source
Description: as §2

T5 sequence (P29274 whole entry): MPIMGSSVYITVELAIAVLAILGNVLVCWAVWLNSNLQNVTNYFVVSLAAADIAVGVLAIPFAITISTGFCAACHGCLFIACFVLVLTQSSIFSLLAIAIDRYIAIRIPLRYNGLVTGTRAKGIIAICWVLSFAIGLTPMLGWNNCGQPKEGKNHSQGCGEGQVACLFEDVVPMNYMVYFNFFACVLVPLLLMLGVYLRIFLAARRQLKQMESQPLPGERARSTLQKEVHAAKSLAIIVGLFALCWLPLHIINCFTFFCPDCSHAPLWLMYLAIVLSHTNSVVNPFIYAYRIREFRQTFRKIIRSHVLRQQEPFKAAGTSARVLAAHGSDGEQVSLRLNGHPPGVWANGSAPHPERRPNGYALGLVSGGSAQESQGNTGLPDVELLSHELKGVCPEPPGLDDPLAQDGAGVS

pIC50 [1]: 6.99
SMILES: CCNc1c2c(nc(N)n3nc(-c4ccco4)nc23)nn1C

pKi [2]: < 6.00
SMILES: CSc1c2c(nc(N)n3nc(-c4ccco4)nc23)nn1CCCc1ccccc1

pKi [3]: < 6.00
SMILES: Nc1nc2c(cnn2CCc2ccccc2)c2nc(-c3ccco3)nn12 [SCH-58261]

pKi [4]: < 6.00 | pKi [5]: < 6.00 | pKi [2]: < 6.00 | pKi [6]: < 6.00
SMILES: CN1CCN(Cc2ccc(-c3nc4c5cnn(CCc6ccccc6)c5nc(N)n4n3)o2)CC1

pKi [2]: < 6.00
SMILES: CN1CCN(c2c3c(nc(N)n4nc(-c5ccco5)nc34)nn2C)CC1 [listing 1 of 2 here]

pIC50 [7]: 7.83 | pIC50 [1]: 6.07
SMILES: CCCSc1c2c(nc(N)n3nc(-c4ccco4)nc23)nn1C

pKi [5]: 6.74 | pKi [2]: < 6.00
SMILES: CSc1c2c(nc(NC(=O)Cc3ccc(CC(C)C)cc3)n3nc(-c4ccco4)nc23)nn1C

pKi [2]: 7.85 | pKi [8]: 7.68
SMILES: CCNc1c2c(nc(NC(=O)Nc3ccc(OC)cc3)n3nc(-c4ccco4)nc23)nn1C [listing 1 of 2 here]

pKi [2]: < 6.00
SMILES: COc1ccc(CC(=O)Nc2nc3nn(C)c(SC)c3c3nc(-c4ccco4)nn23)cc1

pKi [9]: < 6.00
SMILES: CN1CCN(c2c3c(nc(N)n4nc(-c5ccco5)nc34)nn2C)CC1 [listing 2 of 2 here]

pIC50 [7]: 8.21 | pIC50 [1]: 6.73
SMILES: CSc1c2c(nc(N)n3nc(-c4ccco4)nc23)nn1C

pKi [4]: 6.63 | pKi [10]: < 6.00 | pKi [2]: < 6.00 | pKi [8]: < 6.00
SMILES: Nc1nc2c(cnn2CCc2ccccc2)c2nc(-c3ccccc3)nn12

pKi [5]: < 6.00 | pKi [8]: < 6.00
SMILES: Cn1nc2nc(N)n3nc(-c4ccco4)nc3c2c1Nc1ccc(O)cc1

SMILES: CSc1c2c(nc(NC(=O)Cc3ccc4c(c3)OCO4)n3nc(-c4ccco4)nc23)nn1C
pIC50 [1]: 6.33

pKi [4]: < 6.00 | pKi [5]: < 6.00 | pKi [2]: < 6.00 | pKi [8]: < 6.00
SMILES: CSc1c2c(nc(N)n3nc(-c4ccc(CN5CCN(C)CC5)o4)nc23)nn1C

pIC50 [7]: 7.21 | pIC50 [1]: 7.35
SMILES: CCNc1c2c(nc(NC(=O)Nc3ccc(OC)cc3)n3nc(-c4ccco4)nc23)nn1C [listing 2 of 2 here]

SMILES: COc1ccc(NC(=O)Nc2nc3nn(C)c(SC)c3c3nc(-c4ccco4)nn23)cc1
pIC50 [1]: 6.09

pKi [4]: < 6.00 | pKi [5]: < 6.00 | pKi [2]: < 6.00 | pKi [6]: < 6.00
SMILES: Nc1nc2c(cnn2CCc2ccccc2)c2nc(-c3ccc(CN4CCOCC4)o3)nn12

pKi [2]: < 6.00 | pKi [8]: < 6.00
SMILES: COc1ccc(NC(=O)Nc2nc3nn(C)c(N4CCN(C)CC4)c3c3nc(-c4ccco4)nn23)cc1
